Measured values taken from patent US11453690B2, “Receptor inhibitor, pharmaceutical composition comprising same, and use thereof” (BEIJING TIDE PHARMACEUTICAL CO., LTD., priority 2018, dated 2022).

These compounds were tested against AT2 Receptor (AT2R) (Homo sapiens (Human), UniProt P50052) (assay: Measurement of inhibitory activity on AT2 receptor (Tag-lite HTRF, Tb-labeled AT2R cells, angiotensin receptor red agonist)). Details: 1 h room temperature.
Chain of AT2 Receptor (AT2R) (P50052 whole entry): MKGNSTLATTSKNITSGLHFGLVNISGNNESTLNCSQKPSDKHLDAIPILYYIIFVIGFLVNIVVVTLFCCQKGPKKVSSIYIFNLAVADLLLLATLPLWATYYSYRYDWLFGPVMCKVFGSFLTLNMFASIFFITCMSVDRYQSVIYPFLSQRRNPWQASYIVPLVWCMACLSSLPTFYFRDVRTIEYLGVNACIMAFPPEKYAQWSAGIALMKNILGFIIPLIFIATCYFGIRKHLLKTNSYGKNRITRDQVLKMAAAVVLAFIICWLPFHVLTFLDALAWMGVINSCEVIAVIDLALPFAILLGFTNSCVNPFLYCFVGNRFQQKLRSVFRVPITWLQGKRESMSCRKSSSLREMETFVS
Format: binding
C=CCc1ccc(CN(C)C(=O)N2[C@H]3CC[C@@H]2[C@@H](C(=O)O)N(C(=O)N(c2ccccc2)c2ccccc2)C3)cc1 [Compound C235, (1R,2S,5S)-8-((4-allylbenzyl)(methyl)carbamoyl)-3-(diphenylcarbamoyl)-3,8-diazabicyclo[3.2.1]octane-2-carboxylic acid] gave an IC50 of 6.78 nM.
CN(Cc1cc2ccccc2s1)C(=O)N1[C@H]2CC[C@@H]1[C@@H](C(=O)O)N(C(=O)N(c1ccccc1)c1ccccc1)C2 [Compound C271] gave an IC50 of 14.5 nM.
Cc1cc(CN(C)C(=O)N2[C@H]3CC[C@@H]2[C@@H](C(=O)O)N(C(=O)C(c2ccccc2)c2ccccc2)C3)cs1 [Compound C277, (1R,2S,5S)-3-(2,2-diphenylacetyl)-8-(methyl((5-methylthiophen-3-yl)methyl)carbamoyl)-3,8-diazabicyclo [3.2.1]octane-2-carboxylic acid] showed an IC50 of 10.5 nM.
For O=C(O)[C@@H]1[C@H]2CC[C@@H](CN1C(=O)N(c1ccccc1)c1ccccc1)N2C(=O)Cc1c[nH]c2ccccc12 [Compound C259, (1R,2S,5S)-8-(2-(1H-indole-3-yl)acetyl)-3-(diphenylcarbamoyl)-3,8-diazabicyclo [3.2.1]octane-2-carboxylic acid], the IC50 was 245 nM.
Work on O=C(O)[C@@H]1[C@H]2CC[C@@H](CN1C(=O)N(c1ccccc1)c1ccccc1)N2C(=O)CCc1ccccc1 [Compound C221, (1R,2S,5S)-3-(diphenylcarbamoyl)-8-(3-phenylpropionyl)-3,8-diazabicyclo [3.2.1]octane-2-carboxylic acid] yielded an IC50 of 76.7 nM.
Work on O=C(O)[C@H]1[C@@H]2CC[C@H](CN1C(=O)OCc1ccccc1)N2C(=O)C(c1ccccc1)c1ccccc1 [Compound C75, (1S,2R,5R)-3-((benzyloxy)carbonyl)-8-(2,2-diphenylacetyl)-3,8-diazabicyclo[3. 2.1]octane-2-carboxylic acid] yielded an IC50 of 54 nM.
Compound O=C(O)[C@@H]1[C@H]2CC[C@@H](CN1C(=O)N(c1ccccc1)c1ccccc1)N2S(=O)(=O)c1ccccc1 [Compound C182, (1R,2S,5S)-3-(diphenylcarbamoyl)-8-(phenylsulfulyl)-3,8-diazabicyclo [3.2.l]octane-2-carboxylic acid] has an IC50 of 432 nM.
Work on Cc1ccccc1CN(C)C(=O)N1[C@H]2CC[C@@H]1[C@@H](C(=O)O)N(C(=O)N(c1ccccc1)c1ccccc1)C2 [Compound C163, (1R,2S,5S)-3-(diphenylcarbamoyl)-8-(methyl (2-methylbenzyl)carbamoyl)-3,8-diazabicyclo [3.2.1]octane-2-carboxylic acid] yielded an IC50 of 65.6 nM.
Compound Cc1ccc([C@H]2CCCN2C(=O)N2[C@H]3CC[C@@H]2[C@@H](C(=O)O)N(C(=O)N(c2ccccc2)c2ccccc2)C3)cc1 [Compound C143, (1R,2S,5S)-3-(diphenylcarbamoyl)-8-((R)-2-(p-tolyl)pyrrolidine-1-carbonyl)-3,8-diazabicyclo [3.2.1]octane-2-carboxylic acid] has an IC50 of 9.97 nM.
C[C@H](c1ccccc1)N(C)C(=O)N1[C@H]2CC[C@@H]1[C@@H](C(=O)O)N(C(=O)N(c1ccccc1)c1ccccc1)C2 [Compound C226, (1R,2S,5S)-3-(diphenylcarbamoyl)-8-(methyl((R)-1-phenylethyl)carbamoyl)-3,8-diazabicyclo [3.2.1]octane-2-carboxylic acid] was tested, and the IC50 was 12.7 nM.
CC(CC(=O)N1[C@H]2CC[C@@H]1[C@@H](C(=O)O)N(C(=O)C(c1ccccc1)c1ccccc1)C2)c1ccccc1 (stereo partly drawn) [Compound C223, (1R,2S,5S)-3-(2,2-diphenylacetyl)-8-(3-phenylbutyryl)-3,8-diazabicyclo [3.2.1]octane-2-carboxylic acid] gave an IC50 of 7.87 nM.
For O=C(O)[C@@H]1[C@@H]2CC[C@@H](CC2OCc2ccccc2Cl)N1C(=O)C(c1ccccc1)c1ccccc1 (stereo partly drawn) [Compound C294, (1S,3S,4S)-5-((2-chloro-benzyl)oxy)-2-(2,2-diphenylacetyl)-2-azabicyclo [2.2.2]octane-3-carboxylic acid], the IC50 was 666 nM.
Work on CN(CC1CCCCC1)C(=O)N1[C@H]2CC[C@@H]1[C@@H](C(=O)O)N(C(=O)N(c1ccccc1)c1ccccc1)C2 [Compound C147, (1R,2S,5S)-8-((cyclohexylmethyl) (methyl)carbamoyl)-3-(diphenylcarbamoyl)-3,8-diazabicyclo [3.2.1]octane-2-carboxylic acid] yielded an IC50 of 111 nM.
For CCN(Cc1ccc(C)s1)C(=O)N1[C@H]2CC[C@@H]1[C@@H](C(=O)O)N(C(=O)N(c1ccccc1)c1ccccc1)C2 [Compound C202, (1R,2S,5S)-3-(diphenylcarbamoyl)-8-(ethyl((5-methylthiophen-2-yl)methyl)carbamoyl)-3,8-diazabicyclo [3.2.1]octane-2-carboxylic acid], the IC50 was 3.87 nM.
Cc1ccc(CN(C(=O)N2[C@H]3CC[C@@H]2[C@@H](C(=O)O)N(C(=O)N(c2ccccc2)c2ccccc2)C3)C2CC2)s1 [Compound C204] showed an IC50 of 4.93 nM.
CCN(Cc1ccc(Cl)cc1)C(=O)N1[C@H]2CC[C@@H]1[C@@H](C(=O)O)N(C(=O)N(c1ccccc1)c1ccccc1)C2 [Compound C217, (1R,2S,5S)-8-((4-chlorobenzyl) (ethyl)carbamoyl)-3-(diphenylcarbamoyl)-3,8-diazabicyclo [3.2.1]octane-2-carboxylic acid] gave an IC50 of 9.13 nM.
Work on CN(Cc1ccsc1)C(=O)N1[C@H]2CC[C@@H]1[C@@H](C(=O)O)N(C(=O)C(c1ccccc1)c1ccccc1)C2 [Compound C187, (1R,2S,5S)-3-(2,2-diphenylacetyl)-8-(methyl(thiophene-3-ylmethyl)carbamoyl)-3,8-diazabicyclo [3.2.1]octane-2-carboxylic acid] yielded an IC50 of 3.75 nM.
O=C(O)[C@@H]1[C@H]2CC[C@@H](CN1C(=O)N(c1ccccc1)c1ccccc1)N2C(=O)C#Cc1ccccc1 [Compound C256, (1R,2S,5S)-3-(diphenylcarbamoyl)-8-(3-phenylpropioloyl)-3,8-diazabicyclo [3.2.1]octane-2-carboxylic acid] showed an IC50 of 40 nM.
With Cc1ccc(CN(C)C(=O)N2[C@H]3CC[C@@H]2[C@@H](C(=O)O)N(C(=O)N(c2ccccc2)c2ccccc2)C3)s1 [Compound C203, (1R,2S,5S)-3-(diphenylcarbamoyl)-8-(methyl ((5-methylthiophen-2-yl)methyl)carbamoyl)-3,8-diazabicyclo [3.2.1]octane-2-carboxylic acid] the IC50 was 13.7 nM.
In the case of O=C(O)[C@@H]1[C@H]2CC[C@@H](CN1C(=O)N(c1ccccc1)c1ccccc1)N2C(=O)c1ccccc1-c1ccccc1 [Compound C240, (1R,2S,5S)-8-([1,1′-biphenyl]-2-carbonyl)-3-(diphenylcarbamoyl)-3,8-diazabicyclo [3.2.1]octane-2-carboxylic acid], the IC50 is reported as 113 nM.
Work on O=C(O)[C@H]1[C@@H]2CC[C@H](CN1C(=O)N(c1ccccc1)c1ccccc1)N2C(=O)N(c1ccccc1)c1ccccc1 [Compound C13, (1S,2R,5R)-3,8-bis (diphenylcarbamoyl)-3,8-diazabicyclo [3.2.1]octane-2-carboxylic acid] yielded an IC50 of 22.2 nM.
With CN(Cc1ccc2ccccc2n1)C(=O)N1[C@H]2CC[C@@H]1[C@@H](C(=O)O)N(C(=O)N(c1ccccc1)c1ccccc1)C2 [Compound C265, (1R,2S,5S)-3-(diphenylcarbamoyl)-8-(methyl (quinoline-2-ylmethyl)carbamoyl)-3,8-diazabicyclo [3.2.1]octane-2-carboxylic acid] the IC50 was 27.2 nM.
Compound CN(C)S(=O)(=O)NC(=O)[C@@H]1[C@H]2CC[C@@H](CN1C(=O)C(c1ccccc1)c1ccccc1)N2C(=O)OCc1ccccc1 [Compound C233] has an IC50 of 102 nM.
CCN(Cc1sccc1C)C(=O)N1[C@H]2CC[C@@H]1[C@@H](C(=O)O)N(C(=O)N(c1ccccc1)c1ccccc1)C2 [Compound C272, (1R,2S,5S)-3-(diphenylcarbamoyl)-8-(ethyl((3-methylthiophen-2-yl)methyl)carbamoyl)-3,8-diazabicyclo [3.2.1]octane-2-carboxylic acid] was tested, and the IC50 was 16.6 nM.
CCN(Cc1cc(C)cs1)C(=O)N1[C@H]2CC[C@@H]1[C@@H](C(=O)O)N(C(=O)N(c1ccccc1)c1ccccc1)C2 [Compound C273, (1R,2S,5S)-3-(diphenylcarbamoyl)-8-(ethyl((4-methylthiophen-2-yl)methyl)carbamoyl)-3,8-diazabicyclo [3.2.1]octane-2-carboxylic acid] was tested, and the IC50 was 20.9 nM.
Compound O=C(O)[C@@H]1[C@H]2CC[C@@H](CN1C(=O)N1c3ccccc3Sc3ccccc31)N2C(=O)C(c1ccccc1)c1ccccc1 [Compound C28, (1R,2S,5S)-8-(2,2-diphenylacetyl)-3-(10H-phenothiazine-10-carbonyl)-3,8-diazabicyclo[3.2.1] octane-2-carboxylic acid] has an IC50 of 473 nM.
Work on CC(Cc1ccccc1)C(=O)N1[C@H]2CC[C@@H]1[C@@H](C(=O)O)N(C(=O)C(c1ccccc1)c1ccccc1)C2 (stereo partly drawn) [Compound C230, (1R,2S,5S)-3-(2,2-diphenylacetyl)-8-(2-methyl-3-phenylpropionyl)-3,8-diazabicyclo [3.2.1]octane-2-carboxylic acid] yielded an IC50 of 50.2 nM.
With CC1(N(Cc2ccsc2)C(=O)N2[C@H]3CC[C@@H]2[C@@H](C(=O)O)N(C(=O)N(c2ccccc2)c2ccccc2)C3)CC1 [Compound C198] the IC50 was 10.2 nM.
CN(Cc1ccccc1)C(=O)N1[C@H]2CC[C@@H]1[C@@H](C(=O)O)N(C(=O)N(c1ccc(F)cc1)c1ccc(F)cc1)C2 [Compound C129, (1R,2S,5S)-8-(benzyl(methyl)carbamoyl)-3-(bis(4-fluorophenyl)carbamoyl)-3,8-diazabicyclo [3.2.1]octane-2-carboxylic acid] gave an IC50 of 148 nM.
Cc1ccc(COC(=O)N2[C@H]3CC[C@@H]2[C@@H](C(=O)O)N(C(=O)C(c2ccccc2)c2ccccc2)C3)cc1 [Compound C194, (1R,2S,5S)-3-(2,2-diphenylacetyl)-8-(((4-methylbenzyl)oxy)carbonyl)-3,8-diazabicyclo [3.2.1]octane-2-carboxylic acid] was tested, and the IC50 was 129 nM.
For CCc1ccc(CN(C)C(=O)N2[C@H]3CC[C@@H]2[C@@H](C(=O)O)N(C(=O)N(c2ccccc2)c2ccccc2)C3)cc1 [Compound C164, (1R,2S,5S)-3-(diphenylcarbamoyl)-8-((4-ethylbenzyl) (methyl)carbamoyl)-3,8-diazabicyclo[3.2.1] octane-2-carboxylic acid], the IC50 was 4.35 nM.
